# In patent US6514692B2, “Method for treatment of immunodeficiency virus infection” (priority 1996, dated 2003):
# “And” between values parts separate entries of the source, which are not always exact repeats. Identical values can stand only once. Like-named read-outs stand apart in the source and are kept apart here.
# Key:
# SK1 isolate of HIV-1 = details: for p24 VALUES, single samples: samples 1-3; for IC50 (inhibition of cell-cell transmission): linear regression
# From the text: (§1) ME180 cells, a cervical epithelial cell line, were obtained from the American Type Culture Collection. These cells were thawed from liquid nitrogen and grown in RPMI 1640 medium supplemented with 10t fetal bovine serum, glutamine and antibiotics. The cells were adherent and were trypsinized (0.5% trypsin in HBSS) to remove them from the flask for passaging and use in assays. For use in the microtiter transmission inhibition assay, ME180 cells were trypsinized, washed and seeded in 96-well flat bottom microtiter plates (COSTAR) at a density of 5×10^3 cells per well. The cells were incubated at 37° C. for 24 hours prior to the tart of the assay. H9 cells chronically infected with he SK1 isolate of HIV-1 were treated with 200 μg/ml mitomycin C for 60 minutes at 37° C. After treatment the cells were washed three times with tissue culture medium. The chronically infected lymphocytes were added to each well at a density of 2×10^4 cells per well. The concentration of mitomycin C used in the treatment of the lymphocytes was chosen to allow lymphocyte survival for the period of time required to transmit virus to the uninfected ME180 cells, but to die prior to the time of assay so as not to contribute to the p24 signal used as the endpoint (see below). In the transmission assay the lytic peptides D4E1 and D2A21, with and without 150 μg/ml pig mucin, were added prior to the addition of chronically infected cells or were mixed with the chronically infected cells prior to their addition to the monolayer of ME180 cells. Mucin was included because it is an abundant constituent of the normal vaginal secretions of a human being, thus any chemotherapeutic agent targeting HIV should be active in its presence if it is to have clinical value. […] The lymphocytes and peptide were co-cultured with the ME180 cells for 6 hours and then removed by washing the ME180 monolayer four times with PBS. The plate was then incubated at 37° C. for six days. Medium was removed and changed every 48 hours during the incubation stage. No further peptide was added after the initial dose. At six days post-co-cultivation, the supernatant was removed from the wells and evaluated for the quantity of p24 antigen by ELISA. The ELISA was performed according to the manufacturer's recommendations. The amount of virus production in wells treated with various concentrations of the peptides was evaluated with appropriate cell and virus controls. Data are reported as a percent of virus control at each drug concentration. Linear regression analysis was used to calculate the […] and IC95 concentrations of the transmission inhibitor. […] TI represents the toxicity index, which is the ratio of the TC50/IC50, and is an indication of the relative concentrations window that exists between efficacy and toxicity.
# ME180 cells = test: toxicity (XTT) in transmission inhibition assay; details: for TOXICITY VALUES (XTT), single samples: samples 1-3; for TC50 (concentration at which 50% of cells are eliminated): interpolation from % CC
# From the text: as §1
# [1] = 0.32 μg/ml, with 150 μg/ml pig mucin
# [2] = 1 μg/ml, with 150 μg/ml pig mucin
# [3] = 3.2 μg/ml, with 150 μg/ml pig mucin
# [4] = 10 μg/ml, with 150 μg/ml pig mucin
# [5] = 32 μg/ml, with 150 μg/ml pig mucin
# [6] = 100 μg/ml, with 150 μg/ml pig mucin
substance,measurement,setting,value
dextran sulfate,"% VC (p24, percent of virus control)","SK1 isolate of HIV-1; 0.32 μg/ml, no mucin",5.9%
same,"p24 VALUES, MEAN","SK1 isolate of HIV-1; 0.32 μg/ml, no mucin",3.2 µg/mL
same,"% VC (p24, percent of virus control)",SK1 isolate of HIV-1; [1],7.7%
same,"p24 VALUES, MEAN",SK1 isolate of HIV-1; [1],4.5 µg/mL
same,"p24 VALUES, single samples",SK1 isolate of HIV-1; [1],5.0 µg/mL and 3.2 µg/mL and 6.1 µg/mL
same,"% VC (p24, percent of virus control)","SK1 isolate of HIV-1; 1 μg/ml, no mucin",7.6%
same,"p24 VALUES, MEAN","SK1 isolate of HIV-1; 1 μg/ml, no mucin",4.1 µg/mL
same,"% VC (p24, percent of virus control)",SK1 isolate of HIV-1; [2],7.8%
same,"p24 VALUES, MEAN",SK1 isolate of HIV-1; [2],4.9 µg/mL
same,"% VC (p24, percent of virus control)","SK1 isolate of HIV-1; 3.2 μg/ml, no mucin",0.0%
same,"p24 VALUES, MEAN","SK1 isolate of HIV-1; 3.2 μg/ml, no mucin",0.0 µg/mL
same,"p24 VALUES, single samples","SK1 isolate of HIV-1; 3.2 μg/ml, no mucin",0.0 µg/mL
same,"% VC (p24, percent of virus control)",SK1 isolate of HIV-1; [3],11.4%
same,"p24 VALUES, MEAN",SK1 isolate of HIV-1; [3],7.1 µg/mL
same,"% VC (p24, percent of virus control)","SK1 isolate of HIV-1; 10 μg/ml, no mucin",0.2%
same,"p24 VALUES, MEAN","SK1 isolate of HIV-1; 10 μg/ml, no mucin",0.0 µg/mL
same,"% VC (p24, percent of virus control)",SK1 isolate of HIV-1; [4],11.6%
same,"p24 VALUES, MEAN",SK1 isolate of HIV-1; [4],7.2 µg/mL
same,"% VC (p24, percent of virus control)","SK1 isolate of HIV-1; 32 μg/ml, no mucin",0.0%
same,"p24 VALUES, MEAN","SK1 isolate of HIV-1; 32 μg/ml, no mucin",0.0 µg/mL
same,"p24 VALUES, single samples","SK1 isolate of HIV-1; 32 μg/ml, no mucin",0.0 µg/mL
same,"% VC (p24, percent of virus control)",SK1 isolate of HIV-1; [5],14.6%
same,"p24 VALUES, MEAN",SK1 isolate of HIV-1; [5],9.0 µg/mL
same,"% VC (p24, percent of virus control)","SK1 isolate of HIV-1; 100 μg/ml, no mucin",0.0%
same,"p24 VALUES, MEAN","SK1 isolate of HIV-1; 100 μg/ml, no mucin",0.0 µg/mL
same,"p24 VALUES, single samples","SK1 isolate of HIV-1; 100 μg/ml, no mucin",0.0 µg/mL
same,"% VC (p24, percent of virus control)",SK1 isolate of HIV-1; [6],8.0%
same,"p24 VALUES, MEAN",SK1 isolate of HIV-1; [6],4.9 µg/mL
same,IC50 (inhibition of cell-cell transmission),SK1 isolate of HIV-1; no mucin,IC50 = 0.002 μg/ml
same,IC50 (inhibition of cell-cell transmission),SK1 isolate of HIV-1; with 150 μg/ml pig mucin,IC50 = 0.002 μg/ml
same,"% CC (XTT, percent of cell control)","ME180 cells; 0.32 μg/ml, no mucin",95.4%
same,"TOXICITY VALUES (XTT), MEAN","ME180 cells; 0.32 μg/ml, no mucin",0.485 O.D. @ 450/650 nm
same,"TOXICITY VALUES (XTT), single samples","ME180 cells; 0.32 μg/ml, no mucin",0.477 O.D. @ 450/650 nm and 0.473 O.D. @ 450/650 nm and 0.504 O.D. @ 450/650 nm
same,"% CC (XTT, percent of cell control)",ME180 cells; [1],95.4%
same,"TOXICITY VALUES (XTT), MEAN",ME180 cells; [1],0.485 O.D. @ 450/650 nm
same,"TOXICITY VALUES (XTT), single samples",ME180 cells; [1],0.477 O.D. @ 450/650 nm and 0.473 O.D. @ 450/650 nm and 0.504 O.D. @ 450/650 nm
same,"% CC (XTT, percent of cell control)","ME180 cells; 1 μg/ml, no mucin",98.4%
same,"TOXICITY VALUES (XTT), MEAN","ME180 cells; 1 μg/ml, no mucin",0.500 O.D. @ 450/650 nm
same,"TOXICITY VALUES (XTT), single samples","ME180 cells; 1 μg/ml, no mucin",0.479 O.D. @ 450/650 nm and 0.519 O.D. @ 450/650 nm and 0.501 O.D. @ 450/650 nm
same,"% CC (XTT, percent of cell control)",ME180 cells; [2],98.4%
same,"TOXICITY VALUES (XTT), MEAN",ME180 cells; [2],0.500 O.D. @ 450/650 nm
same,"TOXICITY VALUES (XTT), single samples",ME180 cells; [2],0.479 O.D. @ 450/650 nm and 0.519 O.D. @ 450/650 nm and 0.501 O.D. @ 450/650 nm
same,"% CC (XTT, percent of cell control)","ME180 cells; 3.2 μg/ml, no mucin",91.5%
same,"TOXICITY VALUES (XTT), MEAN","ME180 cells; 3.2 μg/ml, no mucin",0.465 O.D. @ 450/650 nm
same,"TOXICITY VALUES (XTT), single samples","ME180 cells; 3.2 μg/ml, no mucin",0.483 O.D. @ 450/650 nm and 0.456 O.D. @ 450/650 nm and 0.457 O.D. @ 450/650 nm
same,"% CC (XTT, percent of cell control)",ME180 cells; [3],91.6%
same,"TOXICITY VALUES (XTT), MEAN",ME180 cells; [3],0.465 O.D. @ 450/650 nm
same,"TOXICITY VALUES (XTT), single samples",ME180 cells; [3],0.483 O.D. @ 450/650 nm and 0.456 O.D. @ 450/650 nm and 0.457 O.D. @ 450/650 nm
same,"% CC (XTT, percent of cell control)","ME180 cells; 10 μg/ml, no mucin",95.7%
same,"TOXICITY VALUES (XTT), MEAN","ME180 cells; 10 μg/ml, no mucin",0.486 O.D. @ 450/650 nm
same,"TOXICITY VALUES (XTT), single samples","ME180 cells; 10 μg/ml, no mucin",0.463 O.D. @ 450/650 nm and 0.499 O.D. @ 450/650 nm and 0.497 O.D. @ 450/650 nm
same,"% CC (XTT, percent of cell control)",ME180 cells; [4],95.7%
same,"TOXICITY VALUES (XTT), MEAN",ME180 cells; [4],0.486 O.D. @ 450/650 nm
same,"TOXICITY VALUES (XTT), single samples",ME180 cells; [4],0.463 O.D. @ 450/650 nm and 0.499 O.D. @ 450/650 nm and 0.497 O.D. @ 450/650 nm
same,"% CC (XTT, percent of cell control)","ME180 cells; 32 μg/ml, no mucin",92.5%
same,"TOXICITY VALUES (XTT), MEAN","ME180 cells; 32 μg/ml, no mucin",0.470 O.D. @ 450/650 nm
same,"TOXICITY VALUES (XTT), single samples","ME180 cells; 32 μg/ml, no mucin",0.444 O.D. @ 450/650 nm and 0.466 O.D. @ 450/650 nm and 0.499 O.D. @ 450/650 nm
same,"% CC (XTT, percent of cell control)",ME180 cells; [5],92.5%
same,"TOXICITY VALUES (XTT), MEAN",ME180 cells; [5],0.470 O.D. @ 450/650 nm
same,"TOXICITY VALUES (XTT), single samples",ME180 cells; [5],0.444 O.D. @ 450/650 nm and 0.466 O.D. @ 450/650 nm and 0.499 O.D. @ 450/650 nm
same,"% CC (XTT, percent of cell control)","ME180 cells; 100 μg/ml, no mucin",98.7%
same,"TOXICITY VALUES (XTT), MEAN","ME180 cells; 100 μg/ml, no mucin",0.491 O.D. @ 450/650 nm
same,"TOXICITY VALUES (XTT), single samples","ME180 cells; 100 μg/ml, no mucin",0.479 O.D. @ 450/650 nm and 0.500 O.D. @ 450/650 nm and 0.495 O.D. @ 450/650 nm
same,"% CC (XTT, percent of cell control)",ME180 cells; [6],98.7%
same,"TOXICITY VALUES (XTT), MEAN",ME180 cells; [6],0.491 O.D. @ 450/650 nm
same,"TOXICITY VALUES (XTT), single samples",ME180 cells; [6],0.479 O.D. @ 450/650 nm and 0.500 O.D. @ 450/650 nm and 0.495 O.D. @ 450/650 nm
same,TC50 (concentration at which 50% of cells are eliminated),ME180 cells; no mucin,TC50 = 1 μg/ml
same,TC50 (concentration at which 50% of cells are eliminated),ME180 cells; with 150 μg/ml pig mucin,TC50 = 1 μg/ml
